# Several values for one entry are separate records, joined by “and”; a condition that tells them apart may be missing. Equal entries are not always repeated.
# Columns and labels:
# Type in all cases: in vivo
# [1] = system: barnyardgrass, Echinochloa crus-galli; assay: Field trial in rice, foliar post-emergence visual weed control: barnyardgrass; details: ECHCG
# Procedure: (§1) Field trials were conducted in Taiwan, China and Colombia with applications made in the area of naturally occurring weed populations. All treatments were applied using a randomized complete block trial design, with 3 to 4 replications per treatment. Plot size varied and was 1-6 meters×2-12 meters (width×length). Rice was seeded into the plots, and the rice crop was maintained as a normal commercial crop with appropriate fertilizer and maintenance treatments as needed. Rice size at application varied from the 2 to 4 leaf stage, and weeds were at the 2 to 5 leaf stage. All treatments were foliar applied as post-emergence treatments using backpack sprayers with compressed air or carbon dioxide (CO2) propellant. Spray pressure varied from 25 to 35 pounds per square inch (psi). Spray nozzles used were flat fan, with 1 to 4 nozzle booms used to apply from 200 to 450 L/ha of water as spray diluent. All treatments were mixed in water at appropriately formulated product rates to achieve the desired rates as shown based on a unit area of application (hectare). Commercially available products were used to make all applications, consisting of FENCER® 250D and BENGALA® 250D (25 grams active ingredient per liter (g ai/L) penoxsulam in an oil dispersion formulation); GALLANT™ SUPER and VERDICT™ SUPER EC (108 g ai/L haloxyfop-R-methyl in an emulsifiable concentrate formulation); GULLIVER® (500 grams active ingredient per kilograms (g ai/kg) WP (wettable powder)) and NOMINEE® SL (100 g ai/L bispyribac-sodium wettable powder).
# (§2) Treatments consisted of haloxyfop-R-methyl and an ALS mode of action herbicide (penoxsulam, bispyribac-sodium, bensulfuron-methyl, or azimsulfuron), applied alone or in combination.
# (§3) The treated plots and control plots were rated blind at various intervals after application. Ratings were based on a scale of 0-100%, as discussed above, wherein 0% indicates complete growth of the undesired vegetation and 100% indicates complete prevention of the undesired vegetation.
# (§4) Colby's equation was used to determine the herbicidal effects expected from the mixtures, as described above. The results were measured at the evaluation intervals provided in Tables 1-5 after the first application of the compositions. […] The combinations tested, application rates and ratios employed, plant species tested, and results are included in Tables 1-5 below.
# (§5) Colby's equation was used to determine the herbicidal effects expected from the mixtures (S. R. Colby, Calculating Synergistic and Antagonistic Responses of Herbicide Combinations, WEEDS 15, p. 22 (1967)). A t-test (alpha=0.05) between Colby predictions and observed combinations was used to test for significant differences indicating synergy or antagonism using replicate data. The results presented in Tables 1-5 were significant according to the described criteria.
# [2] = system: Chinese sprangletop, Leptochloa chinensis; assay: Field trial in rice, foliar post-emergence visual weed control: Chinese sprangletop; details: LEFCH
# Procedure: as §1, §2, §3, §4, §5
# [3] = system: bullgrass, Eleusine indica; assay: Field trial in rice, foliar post-emergence visual weed control: bullgrass; details: ELEIN, 7DAA
# Procedure: as §1, §2, §3, §4
# as §5, with “The results presented in Tables 1-5 were significant according to the described criteria.” left out
# [4] = system: rice flatsedge, Cyperus iria; assay: Field trial in rice, foliar post-emergence visual weed control: rice flatsedge; details: CYPIR
# Procedure: as §1, §2, §3, §4, §5
# [5] = system: small flower flatsedge, Cyperus difformis; assay: Field trial in rice, foliar post-emergence visual weed control: small flower flatsedge; details: CYPDI; for % Visual Weed Control: 7DAA; for Mean % weed control: 14DAA
# Procedure: as §1, §2, §3, §4, §5
# [6] = system: itch grass, Rottboellia exaltata; assay: Field trial in rice, foliar post-emergence visual weed control: itch grass; details: ROOEX
# Procedure: as §1, §2, §3, §4, §5
# [7] = system: monochoria, Monochoria vaginalis; assay: Field trial in rice, foliar post-emergence visual weed control: monochoria; details: MOOVA, 7DAA
# Procedure: as §1, with “Commercially available products were used to make all applications, consisting of FENCER® 250D and BENGALA® 250D (25 grams active ingredient per liter (g ai/L) penoxsulam in an oil dispersion formulation); GALLANT™ SUPER and VERDICT™ SUPER EC (108 g ai/L haloxyfop-R-methyl in an emulsifiable concentrate formulation); GULLIVER® (500 grams active ingredient per kilograms (g ai/kg) WP (wettable powder)) and NOMINEE® SL (100 g ai/L bispyribac-sodium wettable powder).” left out
# Colby's equation was used to determine the herbicidal effects expected from the mixtures, as described above. The results were measured at the evaluation intervals provided in Tables 1-5 after the first application of the compositions. […]
# [8] = system: crabgrass, Digitaria horizontalis; assay: Field trial in rice, foliar post-emergence visual weed control: crabgrass; details: DIGHO
# Procedure: as §1, §2, §3, §4, §5
compound,measurement,setting,value
"COc1cc(OC)nc(NC(=O)NS(=O)(=O)c2c(-c3nnn(C)n3)cnn2C)n1 [Azimsulfuron, 1-(4,6-dimethoxypyrimidin-2-yl)-3-[1-methyl-4-(2-methyl-2H-tetrazol-5-yl)pyrazol-5-ylsulfonyl]urea]",Mean % weed control,"[1]; 7DAA, 40 g ai/ha alone",89.0%
same,Mean % weed control,"[2]; 14DAA, 10 g ai/ha alone",0.0%
same,Mean % weed control,"[2]; 14DAA, 20 g ai/ha alone",0.0%
"COC(=O)C(C)Oc1ccc(Oc2ncc(C(F)(F)F)cc2Cl)cc1 [Haloxyfop-methyl (R), haloxyfop-R-methyl]",Mean % weed control,[3]; 4 g ai/ha alone,21.7%
same,Mean % weed control,"[4]; 7DAA, 8 g ai/ha alone",0.0%
same,Mean % weed control,"[4]; 7DAA, 16 g ai/ha alone",0.0%
same,Mean % weed control,"[4]; 15DAA, 8 g ai/ha alone",0.0%
same,Mean % weed control,"[4]; 15DAA, 16 g ai/ha alone",11.3%
same,Mean % weed control,"[1]; 7DAA, 4 g ai/ha alone",0.0%
same,Mean % weed control,"[1]; 7DAA, 8 g ai/ha alone",0.0%
same,Mean % weed control,"[1]; 7DAA, 27 g ai/ha alone",0.0%
same,Mean % weed control,"[1]; 14DAA, 8 g ai/ha alone",0.0%
same,Mean % weed control,"[1]; 21DAA, 27 g ai/ha alone",0.0%
same,Mean % weed control,"[1]; 28DAA, 4 g ai/ha alone",0.0%
same,% Visual Weed Control,"[1]; 28DAA, 4 g ai/ha alone (Table 4)",0%
same,Mean % weed control,"[1]; 28DAA, 8 g ai/ha alone",0.0% and 6.7%
same,% Visual Weed Control,"[1]; 28DAA, 8 g ai/ha alone (Table 4)",0%
same,Mean % weed control,"[1]; 28DAA, 13.5 g ai/ha alone",0.0%
same,Mean % weed control,"[1]; 28DAA, 27 g ai/ha alone",0.0%
same,Mean % weed control,"[2]; 7DAA, 8 g ai/ha alone",0.0%
same,Mean % weed control,"[2]; 14DAA, 2 g ai/ha alone",0.0%
same,Mean % weed control,"[2]; 14DAA, 4 g ai/ha alone",0.0%
same,Mean % weed control,"[2]; 28DAA, 8 g ai/ha alone",0.0%
same,% Visual Weed Control,[5]; 2 g ai/ha alone,0%
same,% Visual Weed Control,[5]; 8 g ai/ha alone,0%
same,Mean % weed control,[5]; 16 g ai/ha alone,0.0%
same,Mean % weed control,[5]; 32 g ai/ha alone,0.0%
same,Mean % weed control,"[6]; 7DAA, 8 g ai/ha alone",11.7%
same,Mean % weed control,"[6]; 15DAA, 4 g ai/ha alone",0.0%
same,Mean % weed control,"[6]; 15DAA, 16 g ai/ha alone",77.5%
same,Mean % weed control,"[6]; 28DAA, 4 g ai/ha alone",0.0%
same,Mean % weed control,[7]; 16 g ai/ha alone,0.0%
same,Mean % weed control,"[8]; 7DAA, 8 g ai/ha alone",71.7%
same,Mean % weed control,"[8]; 15DAA, 4 g ai/ha alone",35.0%
"COC(=O)c1ccccc1CS(=O)(=O)NC(=O)Nc1nc(OC)cc(OC)n1 [Bensulfuron-Methyl, bensulfuron-methyl]",% Visual Weed Control,"[1]; 28DAA, 20 g ai/ha alone (Table 4)",0%
same,% Visual Weed Control,"[1]; 28DAA, 40 g ai/ha alone (Table 4)",23%
same,% Visual Weed Control,[5]; 10 g ai/ha alone,90%
same,% Visual Weed Control,[5]; 20 g ai/ha alone,92%
"COc1cc(OC)nc(Oc2cccc(Oc3nc(OC)cc(OC)n3)c2C(=O)O)n1 [Bispyribac-Sodium, bispyribac-sodium]",Mean % weed control,"[1]; 7DAA, 20 g ai/ha alone",53.3%
same,Mean % weed control,"[1]; 7DAA, 40 g ai/ha alone",76.7%
same,Mean % weed control,"[1]; 14DAA, 20 g ai/ha alone",35.0%
same,Mean % weed control,"[1]; 28DAA, 20 g ai/ha alone",20.0%
same,Mean % weed control,"[1]; 28DAA, 40 g ai/ha alone",88.3%
COc1cnc(OC)n2nc(NS(=O)(=O)c3c(OCC(F)F)cccc3C(F)(F)F)nc12 [Penoxsulam],Mean % weed control,[3]; 8 g ai/ha alone,0.0%
same,Mean % weed control,[3]; 16 g ai/ha alone,0.0%
same,Mean % weed control,[3]; 32 g ai/ha alone,0.0%
same,Mean % weed control,"[4]; 7DAA, 8 g ai/ha alone",62.0%
same,Mean % weed control,"[4]; 7DAA, 32 g ai/ha alone",87.0%
same,Mean % weed control,"[4]; 15DAA, 8 g ai/ha alone",85.0%
same,Mean % weed control,"[1]; 7DAA, 10 g ai/ha alone",63.3%
same,Mean % weed control,"[1]; 7DAA, 15 g ai/ha alone",95.7%
same,Mean % weed control,"[1]; 21DAA, 15 g ai/ha alone",93.3%
same,Mean % weed control,"[1]; 28DAA, 7.5 g ai/ha alone",53.3%
same,Mean % weed control,"[1]; 28DAA, 10 g ai/ha alone",56.7%
same,Mean % weed control,"[1]; 28DAA, 15 g ai/ha alone",91.7%
same,Mean % weed control,"[1]; 28DAA, 30 g ai/ha alone",98.3%
same,Mean % weed control,"[2]; 7DAA, 10 g ai/ha alone",0.0%
same,Mean % weed control,"[2]; 7DAA, 20 g ai/ha alone",0.0%
same,Mean % weed control,"[2]; 7DAA, 30 g ai/ha alone",0.0%
same,Mean % weed control,"[2]; 14DAA, 10 g ai/ha alone",0.0%
same,Mean % weed control,"[2]; 14DAA, 20 g ai/ha alone",0.0%
same,Mean % weed control,"[2]; 14DAA, 30 g ai/ha alone",0.0%
same,Mean % weed control,"[2]; 28DAA, 30 g ai/ha alone",0.0%
same,Mean % weed control,[5]; 10 g ai/ha alone,93.3%
same,Mean % weed control,"[6]; 7DAA, 32 g ai/ha alone",3.3%
same,Mean % weed control,"[6]; 15DAA, 8 g ai/ha alone",0.0%
same,Mean % weed control,"[6]; 28DAA, 8 g ai/ha alone",0.0%
same,Mean % weed control,"[6]; 28DAA, 16 g ai/ha alone",12.5%
same,Mean % weed control,[7]; 5 g ai/ha alone,90.0%
same,Mean % weed control,"[8]; 7DAA, 8 g ai/ha alone",0.0%
same,Mean % weed control,"[8]; 7DAA, 16 g ai/ha alone",0.0%
same,Mean % weed control,"[8]; 15DAA, 8 g ai/ha alone",0.0%
same,Mean % weed control,"[8]; 15DAA, 16 g ai/ha alone",0.0%
same,Mean % weed control,"[8]; 15DAA, 32 g ai/ha alone",0.0%

# Reference: US10624342B2, “Synergistic weed control from applications of haloxyfop and ALS inhibitor herbicides” (priority 2014, dated 2020)
